Experimental data taken from US9844599B2, “Nitric oxide releasing produgs of therapeutic agents” (priority 2013, dated 2017).

Assays:
[1] = Stability of prodrugs / release of parent drug in Simulated Gastric Fluid (SGF); format: in vitro ADME; settings: for % of Prodrug remaining (μM) / Prodrug Remaining (%): simulated gi fluid
Protocol: SGF was prepared according to the procedure described in Test Solution—USP. Thus, 0.2 g of sodium chloride and 0.32 g of purified pepsin (Sigma, derived from porcine stomach mucosa with an activity of 800 to 2500 units per mg of protein) were dissolved in 0.7 mL of hydrochloric acid and sufficient water to make 100 mL. This test solution has a pH of about 1.2 and was utilized for in-vitro studies.
(§1) The solution of the test compound in acetonitrile (10 μL of […] solution) was dissolved in 990 μL of biological fluid (SGF/SIF/Human Plasma). The resulting reaction mixtures were incubated at 37° C. At specified time intervals, aliquots (60 μL) were withdrawn and added to acetonitrile (200 μL) and mixed well by vortexing for 2 minutes. The mixture was centrifuged at 13000 rpm for 15 min at 4° C., and the supernatant analyzed by HPLC. The amounts (area percentages) of the remaining intact prodrug (if any) and the released metabolite(s) were estimated by HPLC.
(§2) This was performed by using HPLC instrument (Waters alliance), pump 2695, and PDA detector 2996 with the following chromatographic parameters: Wavelength −210 nm; Column-Waters X-Terra RP-18, 150×3.9 mm, 5 μm; Injection volume, 25 μL; Run time, 13 min. Mode of operation was linear gradient with mobile phase A: Acetonitrile and B: 0.1% TFA in water (filtered and degassed). Flow rate was 1.0 mL/min at 25° C.

[2] = system: serum thromboxane B2 (TXB2) formation; assay: Inhibition of serum thromboxane B2 (TXB2) formation; format: in vivo, Sprague-Dawley (SD) rats; settings: SD rats, 30 mg/kg aspirin or equimolar 44.82 mg/kg, o.d., 7 days
Protocol: Aspirin is used as an antiplatelet agent for the treatment of cardiovascular complications. […] It is therefore possible to achieve complete suppression of platelet. TXA2 (and also TXB2) formation via chronic administration of aspirin at a dose of 30 mg/daily (Patrignani, P., et al. J. Clin. Invest. 1982, 69, 1366-1372). The antiplatelet activity of aspirin (30 mg/kg) and its prodrug I-D1-R1 (at a dose equimolar to 30 mg/kg dose of aspirin) was evaluated in Sprague-Dawley (SD) rats through estimation of serum TXB2 levels (Esser, R. et al., Br. J. Pharmacol. 2006, 144, 538-550) and the experimental results are presented in FIG. 7.
In vivo TXB2 inhibition potential of aspirin and NO-aspirin prodrugs was assessed in Sprague-Dawley (SD) rats; the serum TXB2 levels were estimated according to the reported procedure (R. Esser, R., et al., Br. J. Pharmacol. 2006, 144, 538-550). Thus, vehicle, aspirin (30 mg/kg) or aspirin prodrug I-D1-R1 (44.82 mg/kg which is equivalent to 30 mg/kg dose of aspirin) were administered orally to the overnight fasted SD rats. […] The serum TXB2 concentrations were determined by enzyme immunoassay (EIA) using commercially available TXB2 estimation kit (Cayman Chemicals, USA), according to the method described in kit information booklet.

[3] = Stability / release of aspirin in Simulated Intestinal Fluid (SIF); format: in vitro ADME; settings: 1 mM concentration
Protocol: SIF was prepared according to the procedure described in Test Solution—USP. Thus, 0.68 g of monobasic potassium phosphate was dissolved in 25 mL of water followed by addition of 0.2N NaOH (7.7 mL) and water (50 mL). To this solution was added pancreatin (1 g) and mixed; the pH of the resulting solution was adjusted to about 6.8 with 0.2N HCl/0.2N NaOH and the solution, was diluted with water to 100 mL. The solution was utilized for in-vitro studies.
as §1
as §2, with “Flow rate was 1.0 mL/min at 25° C.” left out

[4] = Stability / release of aspirin and salicylic acid in human plasma; format: in vitro ADME; settings: 100 μM, FIG. 11
Protocol: Human plasma was similarly obtained by processing the blood taken from healthy human male volunteers (age group 25-35 years) who had not consumed any NSAIDS one week prior to the collection of blood. This plasma was utilized for the in-vitro experiments.
as §1, §2

[5] = Acute gastric ulcerogenesis activity study; settings: rats, acute oral; aspirin 100 mg/kg, I-D1-R1 298.85 mg/kg, naproxen 100 mg/kg, I-D2-R1 138.67 mg/kg
Protocol: The animals were sacrificed after 5 h of drug administration. The stomachs of the treated animals were separated, perfused with 2% formalin (10 mL), and a large curvature was excised. The severity of the mucosal damage was assessed on the basis of the size of the observed ulcer lesions in the images captured using a stereomicroscope attached to a digital camera (Stemi 2000, Zeiss, Germany). The Image Pro Plus software (version 5.1) was used to quantify the hemorrhagic/ulcer lesions in pixels and to convert them into mm^2. The total area of lesions was calculated for each treatment group and the measure of gastric ulcers (Mean±SEM) (mm^2) was estimated (FIGS. 5 and 6).

[6] = Stability of prodrugs at RT and at 50° C. (capped vials); format: physicochemical

CC(=O)Oc1ccccc1C(=O)O [Aspirin, aspirin, reference compound]
AUC of aspirin (released / remaining) in SGF ([1]; 1 µM, pH 1.2): 12348 µM·h
inhibition at 30 mg/kg ([2]; Rattus norvegicus, po, 168 h): 76%

CC(=O)Oc1ccccc1C(=O)OC(C)O[N+](=O)[O-] (stereo not drawn) [I-D1-R1, 1-(nitrooxy)ethyl 2-acetoxybenzoate]
Release of aspirin in SIF (in words) [3]: released significant amount of aspirin
Salicylic acid released in human plasma (in words) [4]: large and proportional amount
Release of parent drug on incubation in SGF (in words) [1]: released quantitative amounts of the parent drug aspirin
% of Aspirin Released (μM) ([1]; 0 min, 1 µM, pH 1.2): 0%
AUC of aspirin (released / remaining) in SGF ([1]; 1 µM, pH 1.2): 10406 µM·h
Aspirin released in SGF, less than that of aspirin ([1]; 1 µM, pH 1.2): about 15%
% of Aspirin Released (μM) ([1]; 5 min, 1 µM, pH 1.2): 18%
% of Aspirin Released (μM) ([1]; 10 min, 1 µM, pH 1.2): 44%
% of Aspirin Released (μM) ([1]; 30 min, 1 µM, pH 1.2): 97%
% of Aspirin Released (μM) ([1]; 60 min, 1 µM, pH 1.2): 100%
% of Aspirin Released (μM) ([1]; 120 min, 1 µM, pH 1.2): 100%
% of Prodrug remaining (μM) ([1]; 0 h, 1 µM, pH 1.2): 91%
% of Prodrug remaining (μM) ([1]; 5 min, 1 µM, pH 1.2): 82%
% of Prodrug remaining (μM) ([1]; 10 min, 1 µM, pH 1.2): 56%
% of Prodrug remaining (μM) ([1]; 0.5 h, 1 µM, pH 1.2): 3%
% of Prodrug remaining (μM) ([1]; 1 h, 1 µM, pH 1.2): 0%
% of Prodrug remaining (μM) ([1]; 2 h, 1 µM, pH 1.2): 0%
Inhibition of TXB2 formation ([2]; p.o.): 72.59%
Development of gastric ulcers or lesions [5]: none of the animals
Asp (Aspirin) formed on storage ([6]; 50° C., 0 h): NIL
Prodrug (area %) on storage ([6]; 50° C., 0 h): 99.14%
SA (Salicylic acid) formed on storage ([6]; 50° C., 0 h): NIL
Prodrug (area %) on storage ([6]; 50° C., 1 m): 88.34%
SA (Salicylic acid) formed on storage ([6]; 50° C., 1 m): 0.6%
Asp (Aspirin) formed on storage ([6]; 50° C., 2 d): NIL
Prodrug (area %) on storage ([6]; 50° C., 2 d): 98.84%
SA (Salicylic acid) formed on storage ([6]; 50° C., 2 d): 0.1%
Asp (Aspirin) formed on storage ([6]; 50° C., 5 d): 0.3%
Prodrug (area %) on storage ([6]; 50° C., 5 d): 98.18%
SA (Salicylic acid) formed on storage ([6]; 50° C., 5 d): 0.14%
Degradation of prodrug on storage ([6]; 50° C., after 1 month): about 11%
Degradation of prodrug on storage ([6]; 50° C., after 5 days): ~1%
Asp (Aspirin) formed on storage ([6]; RT, 0 h): NIL
Prodrug (area %) on storage ([6]; RT, 0 h): 99.14%
SA (Salicylic acid) formed on storage ([6]; RT, 0 h): NIL
Asp (Aspirin) formed on storage ([6]; RT, 1 m): 0.13%
Prodrug (area %) on storage ([6]; RT, 1 m): 98.56%
SA (Salicylic acid) formed on storage ([6]; RT, 1 m): NIL
Asp (Aspirin) formed on storage ([6]; RT, 3 d): NIL
Prodrug (area %) on storage ([6]; RT, 3 d): 98.89%
SA (Salicylic acid) formed on storage ([6]; RT, 3 d): NIL
Asp (Aspirin) formed on storage ([6]; RT, 18 d): NIL
Prodrug (area %) on storage ([6]; RT, 18 d): 98.95%
SA (Salicylic acid) formed on storage ([6]; RT, 18 d): NIL
Stability on storage (in words) ([6]; RT, up to 1 month): very stable

COc1ccc2cc([C@H](C)C(=O)OC(C)O[N+](=O)[O-])ccc2c1 (stereo partly drawn) [I-D2-R1, (2S)-1-(nitrooxy)ethyl 2-(6-methoxynaphthalen-2-yl)propanoate]
melting point: 69 to 71 °C
Release of parent drug on incubation in SGF (in words) [1]: released quantitative amounts of the parent drug, naproxen
Prodrug Remaining (%) ([1]; 0 h, 1 µM, pH 1.2): 100.00%
Prodrug Remaining (%) ([1]; 5 min, 1 µM, pH 1.2): 84.68%
Prodrug Remaining (%) ([1]; 10 min, 1 µM, pH 1.2): 74.58%
Prodrug Remaining (%) ([1]; 0.5 h, 1 µM, pH 1.2): 32.79%
Prodrug Remaining (%) ([1]; 1 h, 1 µM, pH 1.2): 0.00%
Prodrug Remaining (%) ([1]; 2 h, 1 µM, pH 1.2): 0.00%
Prodrug Remaining (%) ([1]; 3 h, 1 µM, pH 1.2): 0.00%
Development of gastric ulcers or lesions [5]: none of the animals
Nap (Naproxen) formed on storage ([6]; 50° C., 0 h): NIL
Prodrug (area %) on storage ([6]; 50° C., 0 h): 99.12%
Nap (Naproxen) formed on storage ([6]; 50° C., 25 d): 0.33%
Prodrug (area %) on storage ([6]; 50° C., 25 d): 99.00%
Nap (Naproxen) formed on storage ([6]; RT, 0 h): NIL
Prodrug (area %) on storage ([6]; RT, 0 h): 99.12%
Nap (Naproxen) formed on storage ([6]; RT, 25 d): 0.2%
Prodrug (area %) on storage ([6]; RT, 25 d): 98.87%
Stability on storage (in words) ([6]; both at RT and at 50° C., up to 25 days): remained stable
